Experiments:
1205Lu melanoma cells [1] = assay: Apoptosis by flow cytometry (AnnexinV-FITC/PI) of cells on MAF-derived ECM; type: cell-based; conditions: 10 μM Imatinib in presence of 2 μM Vemurafenib, 48 h, 1205Lu on 3D-ECM
Procedure: Cell cycle profiles were determined by flow cytometry analysis of propidium iodide (PI)-stained cells. Melanoma cells cultured onto cell-derived matrices and treated with or without 2 μM vemurafenib for 48 h were washed, fixed in 80% ethanol and incubated at −20° C. for 24 h. Cells were then stained for 20 min at 37° C. in buffer containing 40 μg/ml PI and 20 μg/ml ribonuclease A from bovine pancreas. Cell cycle profiles were collected on a FACS Canto. Cell death was evaluated by flow cytometry following staining with AnnexinV/PI (eBioscience).

DDR2 = target: T1, DDR2 (Homo sapiens, UniProt Q16832); assay: Type I collagen-mediated DDR2 tyrosine phosphorylation in melanoma cells (immunoblot); type: cell-based; conditions: data not shown
T1 sequence (Q16832 22-855): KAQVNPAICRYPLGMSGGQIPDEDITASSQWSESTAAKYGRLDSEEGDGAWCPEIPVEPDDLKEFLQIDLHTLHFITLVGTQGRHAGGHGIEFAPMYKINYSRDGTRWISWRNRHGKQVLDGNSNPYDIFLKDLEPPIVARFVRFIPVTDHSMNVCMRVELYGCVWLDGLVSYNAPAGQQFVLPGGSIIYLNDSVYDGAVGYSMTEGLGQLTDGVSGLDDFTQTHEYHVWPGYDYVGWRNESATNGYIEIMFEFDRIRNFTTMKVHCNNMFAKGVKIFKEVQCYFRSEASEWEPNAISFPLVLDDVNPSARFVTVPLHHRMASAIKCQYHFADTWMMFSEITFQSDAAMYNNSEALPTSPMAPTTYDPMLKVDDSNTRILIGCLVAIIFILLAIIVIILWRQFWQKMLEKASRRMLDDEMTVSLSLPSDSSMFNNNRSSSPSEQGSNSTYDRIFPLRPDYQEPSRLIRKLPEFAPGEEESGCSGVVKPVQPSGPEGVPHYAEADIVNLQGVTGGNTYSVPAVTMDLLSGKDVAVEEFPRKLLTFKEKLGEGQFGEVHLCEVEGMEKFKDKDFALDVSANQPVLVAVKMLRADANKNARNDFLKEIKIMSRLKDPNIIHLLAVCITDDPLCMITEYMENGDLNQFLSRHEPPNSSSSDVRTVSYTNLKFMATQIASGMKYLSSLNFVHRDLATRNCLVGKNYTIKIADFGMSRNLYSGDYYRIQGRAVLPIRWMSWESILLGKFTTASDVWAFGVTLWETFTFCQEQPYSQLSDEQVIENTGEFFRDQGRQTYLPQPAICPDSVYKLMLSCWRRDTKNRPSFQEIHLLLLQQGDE

1205Lu melanoma cells [2] = conditions: Kaplan-Meier, 1205Lu melanoma-bearing mice
Procedure: Mouse experiments were carried out in accordance with the Institutional Animal Care and the local ethical committee. […] Tumor was measured by caliper and the volume was calculated using the formula: V=tumor width×tumor length 2×0.5. When tumor reached 100 mm^3, mice were randomly grouped into control and test groups. […] Mice in control group were treated with vehicle. […] After animal sacrifice tumors were dissected, fixed in formalin and embedded in paraffin.

| type I collagen-mediated DDR2 tyrosine phosphorylation (DDR2) | Compound | apoptosis (AnnexinV/PI cytometry) (1205Lu melanoma cells [1]) | Median time to progression (1205Lu melanoma cells [2]) [days] |
| --- | --- | --- | --- |
| efficiently abrogated | Cc1ccc(NC(=O)c2ccc(CN3CCN(C)CC3)cc2)cc1Nc1nccc(-c2cccnc2)n1 [Imatinib, (4-(4-methylpiperazin-l-yhnethyl)-N-[4-methyl-3-(4-pyridin-3-yl)pyrimidin-2-ylamino)phenyl-benzamide)] | Induction of apoptosis |  |
|  | CCCS(=O)(=O)Nc1ccc(F)c(C(=O)c2c[nH]c3ncc(-c4ccc(Cl)cc4)cc23)c1F [Vemurafenib] |  | 36 |

— patent publication US20210244737A1, “COMPOSITIONS FOR TREATING MELANOMA” (INSERM (INSTITUT NATIONAL DE LA SANTÉ ET DE LA RECHERCHE …, priority 2018, published 2021)
